# Data from patent publication US6670401B2, “Polysubstituted indan-1-ol compounds, and methods for their preparation and use” (Aventis Pharma Deutschland GmbH, priority 2001, dated 2003).
# Tests used:
# female NMRI mice = test: Anorectic action: cumulative evaporated milk consumption after 24 h feed removal; type: in vivo, mouse; conditions: 30 mg/kg i.p.
# Procedure: The activity of the compounds was assayed as follows:
# The anorectic action was tested on female NMRI mice. After removal of feed for 24 hours, the preparation to be tested was administered intraperitoneally (i.p.) or by gavage (po). The animals were housed singly and, with free access to drinking water, they were offered evaporated milk 30 minutes after administration of the preparation. The consumption of evaporated milk was determined and the general behavior of the animals was monitored every half an hour for 7 hours. The measured milk consumption was compared to that of vehicle-treated control animals.
structure (smiles),measurement,setting,value
"CC1(O)c2ccc(Cl)cc2CC1(F)S(C)(=O)=O (stereo not drawn) [Example 1, 5-Chloro-2-fluoro-2-methanesulfonyl-1-methylindan-1-ol]",melting point,,148 °C
same,Reduction in cumulative milk consumption as % of the control,female NMRI mice; compared with vehicle-treated control animals,25%
same,cumulative milk consumption by treated animals,"female NMRI mice; milk offered 30 min after administration, monitored for 7 hours, N=4",4/2.88 ml
